US9642859B2, “Use of capsazepine and analogs thereof to treat cancer” (THE BOARD OF REGENTS OF THE UNIVERSITY OF TEXAS SYSTEM, priority 2012, dated 2017)
Where two headings read alike, the source gives them in different places.

Assays:
TRPA1 [1] = molecular target: T1, TRPA1 (Homo sapiens, UniProt O75762); settings: cited from earlier work
Target sequence in this assay (O75762 whole entry, species assumed): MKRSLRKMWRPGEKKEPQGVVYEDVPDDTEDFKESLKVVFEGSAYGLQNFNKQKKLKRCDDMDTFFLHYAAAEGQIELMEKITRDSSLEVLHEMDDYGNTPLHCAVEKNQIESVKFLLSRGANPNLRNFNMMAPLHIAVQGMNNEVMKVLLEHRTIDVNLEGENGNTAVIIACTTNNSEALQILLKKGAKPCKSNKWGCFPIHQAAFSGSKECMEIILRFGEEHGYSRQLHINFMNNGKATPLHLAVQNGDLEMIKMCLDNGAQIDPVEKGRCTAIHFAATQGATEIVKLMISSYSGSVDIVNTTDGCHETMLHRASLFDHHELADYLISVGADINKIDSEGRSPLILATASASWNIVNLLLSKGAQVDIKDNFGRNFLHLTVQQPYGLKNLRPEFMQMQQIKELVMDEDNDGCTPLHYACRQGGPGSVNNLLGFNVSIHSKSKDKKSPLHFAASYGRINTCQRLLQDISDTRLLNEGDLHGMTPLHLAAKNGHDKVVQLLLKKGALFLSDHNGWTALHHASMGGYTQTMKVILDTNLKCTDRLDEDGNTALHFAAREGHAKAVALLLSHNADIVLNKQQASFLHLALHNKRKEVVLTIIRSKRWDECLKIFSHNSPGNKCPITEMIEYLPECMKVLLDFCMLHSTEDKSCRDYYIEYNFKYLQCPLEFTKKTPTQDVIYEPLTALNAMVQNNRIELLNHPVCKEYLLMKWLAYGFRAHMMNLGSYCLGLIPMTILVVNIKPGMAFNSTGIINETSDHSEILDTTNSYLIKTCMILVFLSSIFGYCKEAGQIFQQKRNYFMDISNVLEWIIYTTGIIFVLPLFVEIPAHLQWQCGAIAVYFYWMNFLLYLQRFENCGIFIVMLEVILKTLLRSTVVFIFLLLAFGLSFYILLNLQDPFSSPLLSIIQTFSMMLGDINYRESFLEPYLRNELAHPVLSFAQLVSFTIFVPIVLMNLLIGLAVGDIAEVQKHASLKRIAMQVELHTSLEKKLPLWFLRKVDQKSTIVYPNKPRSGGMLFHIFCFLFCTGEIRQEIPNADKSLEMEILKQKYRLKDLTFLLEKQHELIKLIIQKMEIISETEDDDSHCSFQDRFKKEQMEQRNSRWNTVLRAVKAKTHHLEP

TRPM8 [2] = molecular target: T2, TRPM8 (Homo sapiens, UniProt Q7Z2W7); settings: cited from earlier work
Target sequence in this assay (Q7Z2W7 whole entry, species assumed): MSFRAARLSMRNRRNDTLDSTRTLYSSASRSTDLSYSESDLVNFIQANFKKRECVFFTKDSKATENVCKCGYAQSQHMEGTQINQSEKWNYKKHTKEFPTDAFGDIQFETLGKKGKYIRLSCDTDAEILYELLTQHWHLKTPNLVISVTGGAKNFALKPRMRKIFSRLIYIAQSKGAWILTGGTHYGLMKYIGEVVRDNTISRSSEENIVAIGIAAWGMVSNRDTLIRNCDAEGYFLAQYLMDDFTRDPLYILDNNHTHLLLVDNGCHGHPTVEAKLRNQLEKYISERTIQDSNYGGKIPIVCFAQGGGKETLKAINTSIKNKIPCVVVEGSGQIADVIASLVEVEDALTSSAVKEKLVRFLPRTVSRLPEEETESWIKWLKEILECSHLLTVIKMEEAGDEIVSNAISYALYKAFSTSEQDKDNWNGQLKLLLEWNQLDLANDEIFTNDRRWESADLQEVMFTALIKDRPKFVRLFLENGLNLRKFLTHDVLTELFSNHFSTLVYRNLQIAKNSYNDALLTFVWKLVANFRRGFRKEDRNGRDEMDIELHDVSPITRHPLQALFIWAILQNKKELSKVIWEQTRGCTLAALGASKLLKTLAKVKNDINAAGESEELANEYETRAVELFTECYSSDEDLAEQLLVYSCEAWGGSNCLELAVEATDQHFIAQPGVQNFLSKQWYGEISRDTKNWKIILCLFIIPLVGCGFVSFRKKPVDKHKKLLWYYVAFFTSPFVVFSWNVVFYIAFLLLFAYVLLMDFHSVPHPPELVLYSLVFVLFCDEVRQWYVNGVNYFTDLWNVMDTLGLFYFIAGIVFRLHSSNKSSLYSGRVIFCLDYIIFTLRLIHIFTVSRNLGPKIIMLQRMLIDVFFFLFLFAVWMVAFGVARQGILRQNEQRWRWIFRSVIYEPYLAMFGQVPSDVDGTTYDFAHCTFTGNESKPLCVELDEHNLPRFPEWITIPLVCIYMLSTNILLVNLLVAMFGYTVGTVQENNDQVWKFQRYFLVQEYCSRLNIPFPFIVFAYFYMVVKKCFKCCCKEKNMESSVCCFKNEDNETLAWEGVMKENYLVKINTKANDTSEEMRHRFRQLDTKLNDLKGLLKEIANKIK

[3] = tested on: CFA-induced thermal hyperalgesia; settings: cited from earlier work
[4] = tested on: CFA-induced mechanical hyperalgesia; settings: cited from earlier work
TRPA1 [5] = molecular target: T1, TRPA1; settings: read-out: hIC50 at TRPA1; cited from earlier work
Target sequence in this assay (O75762 whole entry): as the sequence (O75762 whole entry, species assumed) above

TRPV4 = TRPV4 (Homo sapiens, UniProt Q9HBA0); settings: read-out: hIC50 at TRPV4; cited from earlier work
TRPV4, sequence (Q9HBA0 whole entry): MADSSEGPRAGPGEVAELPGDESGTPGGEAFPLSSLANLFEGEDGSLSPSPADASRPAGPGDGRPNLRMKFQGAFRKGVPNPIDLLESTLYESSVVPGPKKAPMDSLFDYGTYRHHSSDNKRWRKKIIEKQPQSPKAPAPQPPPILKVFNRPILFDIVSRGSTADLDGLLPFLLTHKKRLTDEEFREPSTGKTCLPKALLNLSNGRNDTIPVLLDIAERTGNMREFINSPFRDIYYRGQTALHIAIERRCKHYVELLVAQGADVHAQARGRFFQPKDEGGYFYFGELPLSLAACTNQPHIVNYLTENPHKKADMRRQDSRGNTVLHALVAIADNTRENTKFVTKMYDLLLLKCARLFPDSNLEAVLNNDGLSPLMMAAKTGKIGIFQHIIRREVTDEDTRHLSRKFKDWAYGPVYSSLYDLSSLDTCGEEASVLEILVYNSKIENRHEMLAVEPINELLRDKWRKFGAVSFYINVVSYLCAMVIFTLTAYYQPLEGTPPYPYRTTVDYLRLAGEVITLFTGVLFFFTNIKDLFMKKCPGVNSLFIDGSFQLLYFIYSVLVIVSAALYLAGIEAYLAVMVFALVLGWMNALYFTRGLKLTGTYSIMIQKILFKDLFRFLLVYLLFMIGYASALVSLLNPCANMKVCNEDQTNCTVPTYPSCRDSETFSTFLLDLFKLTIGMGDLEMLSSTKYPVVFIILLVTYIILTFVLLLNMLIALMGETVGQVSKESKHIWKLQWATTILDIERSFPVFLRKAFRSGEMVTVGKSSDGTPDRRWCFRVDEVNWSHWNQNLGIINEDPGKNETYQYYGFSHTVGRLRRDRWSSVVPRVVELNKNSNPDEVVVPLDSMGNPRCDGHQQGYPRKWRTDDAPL

TRPV3 = TRPV3 (Homo sapiens, UniProt Q8NET8); settings: read-out: hIC50 at TRPV3; cited from earlier work
TRPV3, sequence (Q8NET8 whole entry): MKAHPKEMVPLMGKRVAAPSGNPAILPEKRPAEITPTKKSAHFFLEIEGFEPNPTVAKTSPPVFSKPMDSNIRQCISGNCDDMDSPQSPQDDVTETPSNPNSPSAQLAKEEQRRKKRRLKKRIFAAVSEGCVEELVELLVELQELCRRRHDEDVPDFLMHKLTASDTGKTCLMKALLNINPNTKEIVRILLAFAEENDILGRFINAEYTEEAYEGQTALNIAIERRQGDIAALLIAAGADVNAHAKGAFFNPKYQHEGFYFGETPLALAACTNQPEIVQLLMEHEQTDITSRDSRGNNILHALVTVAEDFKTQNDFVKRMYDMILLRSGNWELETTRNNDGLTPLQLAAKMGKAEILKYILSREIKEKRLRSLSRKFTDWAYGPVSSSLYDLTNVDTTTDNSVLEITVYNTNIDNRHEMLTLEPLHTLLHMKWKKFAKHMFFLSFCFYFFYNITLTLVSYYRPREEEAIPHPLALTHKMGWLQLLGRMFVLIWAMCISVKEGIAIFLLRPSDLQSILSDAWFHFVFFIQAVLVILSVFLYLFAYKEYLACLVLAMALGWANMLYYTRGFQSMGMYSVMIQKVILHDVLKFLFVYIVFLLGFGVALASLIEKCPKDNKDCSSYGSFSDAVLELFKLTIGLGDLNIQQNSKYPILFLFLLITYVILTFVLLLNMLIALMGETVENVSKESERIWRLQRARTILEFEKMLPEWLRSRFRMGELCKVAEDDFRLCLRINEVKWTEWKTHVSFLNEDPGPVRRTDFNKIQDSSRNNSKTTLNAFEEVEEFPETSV

TRPM8 [6] = molecular target: T2, TRPM8; settings: read-out: hIC50 at TRPM8; cited from earlier work
Target sequence in this assay (Q7Z2W7 whole entry): as the sequence (Q7Z2W7 whole entry, species assumed) above

[7] = tested on: partial nerve-ligation model; settings: cited from earlier work
[8] = tested on: OSCC cell lines (HSC3, SCC4, and SCC25)
Description: Cell viability assays reported as % of vehicle control (n=3). […] VEH=delivery vehicle control without CAP or CPZ. *p<0.05, ***p<0.001.
FIG. 1H-1: Cell viability assays of OSCC cell lines treated with 30 μM CPZ alone or in combination with 10 mM N-Acetyl-L-Cysteine (NAC) for 24 h (n=4); ***p<0.001.
Human OSCC Cell Lines. The human OSCC cell lines MDA231, PS3, SCC4 and SCC25 were obtained from ATCC (American Type Culture Collection, Rockville, Md.). The HSC3 cell line was obtained from the Japanese Cell Resource Bank (Osaka, Japan). […] Cells were maintained in DMEM (GIBCO, Carlsbad, Calif.) supplemented with 10% FBS at 37° C. in 5% CO2. Both cell lines were derived from primary OSCC tumors from the tongues of male patients in their fifth generation of life. Data regarding pertinent medical history, treatment, outcome of care and recurrence were not available.
Statistical Analysis. Statistical analyses were performed using GraphPad Prism4 (San Diego, Calif.). Experiments were performed in triplicate and results are represented as means+SD except when indicated. […] Cytotoxicity assays of cell viability were analyzed by one-way ANOVA and Bonferroni's post-hoc test (n=3).

[9] = tested on: OSCC cell lines (HSC3, SCC4, and SCC25); assay: Calcium imaging of OSCC cell lines; format: cell-based, human
Description: FIGS. 1J-1 to 1J-2. FIGS. 1J-1(a) to (c): […] FIGS. 1J-2(a) to (c): […] Arrow indicates time point when treatment was added. […] This was due to the toxic effects of this high capsaicin concentration which permeablized the cell membrane allowing calcium to flow freely […] the cell. This was not reversed by capsazepine. […] These finding confirm that activation of TRPV1 is not the mechanism by which cell death is induced using capsazepine.

OKF6 cells = assay: Cell viability assay of immortalized non-malignant oral keratinocytes; format: cell-based; settings: CAP 150 μM, 24 hours
From the text: FIG. 1D-2. […] Treatment with high concentrations of CAP induces death of normal, non-malignant OKF6 cells. The effect of which was reversed by the pre-treatment with CPZ.

[10] = tested on: immortalized human bronchiolar epithelial cell line transformed with a TRPV1 insert; settings: TRPV1-overexpressing cultured cells, treatment with CAP; cited from earlier work
OSCC cell lines = assay: ROS assays by flow cytometry (DCF-DA); format: cell-based, human; settings: 1 h
Description: FIGS. 1I-1 to 1I-3. Reactive oxygen species (ROS) assays. The level of ROS in OSCC cell lines was examined by flow cytometry using 2,7-dichlorodihydrofluorescein diacetate (DCFH-DA; Sigma). Approximately 3×10^5 cells were plated in 12-well plates. To detect ROS, cells were incubated for 30 min at 37° C. with DCF-DA, washed and then treated for 1 h with 30 μM capsazepine (grey, thick line), 150 μM capsaicin (grey, thin line), 30 μM capsazepine+150 μM capsaicin (black line), or vehicle control (dotted line). The cells were harvested, washed twice, and analyzed by flow cytometry.
FIGS. 1I-4(a)-(b) to 1I-6(a)-(b). Induction of ROS in OSCC cell lines. (a). ROS induction in OSCC cell lines following 1 h treatment with 30 μM CPZ (black line) compared to vehicle control. (b). ROS induction in OSCC cell lines following 1 h treatment with 30 μM CPZ is reversed by NAC co-treatment (black line) as indicated in the shift in their peaks to the left.
ROS levels in OSCC cell lines were examined by flow cytometry using 2,7-dichlorodihydrofluorescein diacetate (DCF-DA; Sigma-Aldrich, St. Louis, Mo.). Cells (3×10^5) were plated in 12-well plates and incubated for 30 min with DCF-DA at 37° C. then treated with 30 μM capsazepine using phenol free media with and without 10 mM NAC. Treated cells were incubated for 1 h at 37° C., harvested, washed twice, and analyzed by FACS.

HSC3 cells = assay: Cell viability assay of HSC3 cells, dose response curve; format: cell-based; settings: Homo sapiens, HSC-3, HSC3 cells, FIG. 1K
From the text: FIG. 1K. Cell viability assay of HSC3 cells treated with increasing concentrations of curcumin; […]

TRPV1 [11] = molecular target: T3, TRPV1 (Homo sapiens, UniProt Q8NER1); settings: read-out: hIC50 (45Ca2+ uptake); cited from earlier work
Target sequence in this assay (Q8NER1 whole entry): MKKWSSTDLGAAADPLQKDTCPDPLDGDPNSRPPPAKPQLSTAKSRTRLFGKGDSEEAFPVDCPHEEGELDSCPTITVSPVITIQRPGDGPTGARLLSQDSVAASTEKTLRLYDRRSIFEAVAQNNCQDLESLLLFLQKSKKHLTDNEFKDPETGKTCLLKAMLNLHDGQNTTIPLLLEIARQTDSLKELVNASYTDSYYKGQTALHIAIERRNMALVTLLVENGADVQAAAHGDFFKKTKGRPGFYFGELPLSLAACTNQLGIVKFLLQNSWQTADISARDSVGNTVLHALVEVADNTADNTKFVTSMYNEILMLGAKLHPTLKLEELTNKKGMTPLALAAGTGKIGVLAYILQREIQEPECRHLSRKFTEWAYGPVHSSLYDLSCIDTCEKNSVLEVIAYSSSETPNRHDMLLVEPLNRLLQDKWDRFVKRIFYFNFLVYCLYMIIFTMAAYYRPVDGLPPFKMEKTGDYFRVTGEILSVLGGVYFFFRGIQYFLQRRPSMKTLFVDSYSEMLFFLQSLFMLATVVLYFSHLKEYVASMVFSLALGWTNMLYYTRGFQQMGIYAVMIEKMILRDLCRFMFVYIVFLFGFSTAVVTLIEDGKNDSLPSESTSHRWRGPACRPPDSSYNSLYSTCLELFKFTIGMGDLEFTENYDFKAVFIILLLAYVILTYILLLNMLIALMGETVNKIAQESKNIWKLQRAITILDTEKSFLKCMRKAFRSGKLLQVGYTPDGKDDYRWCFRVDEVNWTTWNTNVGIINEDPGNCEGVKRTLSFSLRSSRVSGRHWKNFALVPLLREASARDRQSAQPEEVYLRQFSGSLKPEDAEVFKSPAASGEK

[12] = rats, 30 mg per kg, orally; cited from earlier work
bone-cancer pain = settings: in vivo model of bone-cancer pain; cited from earlier work
[13] = tested on: PC3 prostate cancer cells; assay: Cell viability assay of PC3 cells with and without NAC; format: cell-based, human; settings: 10 mM NAC, prostate cancer cells
[14] = tested on: MDA231 breast cancer cells; assay: Cell viability assay of MDA231 cells with and without NAC; format: cell-based, human; settings: 10 mM NAC
[15] = tested on: carrageenan-induced thermal hyperalgesia; settings: cited from earlier work
TRPV1 [16] = molecular target: T3, TRPV1; settings: cited from earlier work
Target sequence in this assay (Q8NER1 whole entry, species assumed): as the sequence (Q8NER1 whole entry) above

TRPV1 [17] = molecular target: T3, TRPV1; settings: read-out: hKi (FLIPR); cited from earlier work
Target sequence in this assay (Q8NER1 whole entry): as above

[18] = tested on: TRPV4 and other TRP channels; settings: cited from earlier work
[19] = tested on: capsaicin-evoked flare and acute heat-evoked pain; settings: Phase I; cited from earlier work
[20] = cited from earlier work

Molecule: O=C(NCc1ccc(C(F)(F)F)cc1)Nc1cccc2cnccc12 [A-425619]
- IC50 (TRPA1 [1]): > 10 µM
- IC50 (TRPM8 [2]): 8 µM
- ED50, CFA-induced thermal hyperalgesia ([3]; in vivo): 10 mg per kg

Molecule: CC(C)(C)c1ccc(/C=C/C(=O)Nc2ccc3c(c2)OCCO3)cc1 [AMG-9810]
- CFA-induced mechanical hyperalgesia ([4]; 100 mg per kg): Inhibits
- IC50 (TRPA1 [5]): > 4 µM
- CFA-induced thermal hyperalgesia ([3]; 30 mg per kg): Inhibits
- IC50 (TRPV4): > 4 µM
- IC50 (TRPV3): > 4 µM
- IC50 (TRPM8 [6]): > 4 µM

Molecule: CC(C)(C)c1ccc(NC(=O)N2CCN(c3ncccc3Cl)CC2)cc1 [BCTC, N-(4-tertiarybutylphenyl)-4-(3-chloropyridin-2-yl)tetrahydropyrazine-1(2H)-carboxamide]
- IC50 (TRPM8 [2]): 0.143 µM
- CFA-induced mechanical hyperalgesia ([4]; 3-30 mg per kg, orally): Inhibits
- CFA-induced thermal hyperalgesia ([3]; 3-30 mg per kg, orally): Inhibits
- tactile allodynia [7]: Reduces
- thermal hyperalgesia [7]: Reduces

Molecule: COc1cc(CNC(=O)CCCC/C=C/C(C)C)ccc1O [CAP, capsaicin]
- cell viability / cytotoxic effects ([8]; 30 μM, 24 hrs, HSC3, SCC4, SCC25): does not
- cell viability ([8]; 150 μM, HSC3, SCC4 and SCC25): significantly reduces cell viability
- calcium influx ([9]; 20 μM capsaicin): fails to cause an influx of calcium
- calcium flow ([9]; 150 μM capsaicin (cytotoxic level)): calcium outflow occurred over a prolonged period of time
- cell viability of normal, non-malignant cells (OKF6 cells): induces death
- apoptosis [10]: did result in apoptosis
- level of ROS (OSCC cell lines; 150 μM capsaicin): increase in ROS
- IC50 (HSC3 cells): ~150 µM

Molecule: Cc1nc2cc(C(C)C)c(-c3ccc(Cl)c(OCC4CC4)c3)cc2c(=O)[nH]1 [Compound 26]
- reversal of CFA-induced mechanical hyperalgesia ([4]; 30 mg per kg, orally): 60%
- reversal of mechanical hyperalgesia [7]: 57%

Molecule: C[C@@H]1CN(c2ncc(C(O)CO)cc2Cl)CCN1c1nc2c(-c3cc(F)c(F)c(F)c3)cc(C(F)(F)F)cc2[nH]1 (stereo partly drawn) [Compound 46ad]
- reversal of CFA-induced thermal hyperalgesia ([3]; 30 mg per kg, orally): significant reversal
- IC50 (TRPV1 [11]): 0.001 µM

Molecule: O=C(Nc1ccc(C(F)(F)F)cn1)N1CCN(c2ncccc2C(F)(F)F)CC1 [JNJ-17203212]
- increase in core body temperature [12]: ~1 °C
- nocifensive behaviors (bone-cancer pain): Attenuates

Molecule: CC(=O)N[C@@H](CS)C(=O)O [NAC, N-Acetyl-L-Cysteine]
- effect of NAC on the effects of CPZ ([8]; 10 mM NAC, all OSCC cell lines tested): reverse significantly
- effect of NAC on the effects of CPZ [13]: reverse significantly
- effect of NAC on the effects of CPZ [14]: reverse significantly
- ROS induction by 30 μM CPZ with NAC co-treatment (OSCC cell lines; 10 mM NAC): reversed

Molecule: FC(F)(F)c1ccc(Nc2ncnc3cc(-c4ncccc4C(F)(F)F)ccc23)cc1 [Quinazoline analog]
- block of carrageenan-induced thermal hyperalgesia ([15]; at 3 mg per kg): 80%
- MED, carrageenan-induced thermal hyperalgesia ([15]; minimum effective dose): 0.1 mg per kg

Molecule: COc1cccc(NC(=O)/C=C/c2ccc(Cl)cc2)c1 [SB-366791]
- capsaicin and heat-mediated activation of TRPV1 (TRPV1 [16]): Inhibits
- Ki (TRPV1 [17]): 0.018 µM
- selectivity versus TRPV4 and other TRP channels [18]: Selective

Molecule: O=C(Nc1ccccc1Br)N[C@@H]1CCN(c2ccc(C(F)(F)F)cn2)C1 [SB-705498]
- acute heat-evoked pain on non-sensitized skin [19]: reduced
- capsaicin-evoked flare [19]: reduced

Molecule: COc1cc(/C=C/C(=O)CC(=O)/C=C/c2ccc(O)c(OC)c2)ccc1O [curcumin]
- IC50 (HSC3 cells): 90 µM

Molecule: AMG 517
- block of CFA-induced thermal hyperalgesia ([3]; at 10 mg per kg): ~40%
- MED, CFA-induced thermal hyperalgesia ([3]; minimum effective dose): 1 mg per kg
- IC50 (TRPV1 [11]): 0.0009 µM
- body temperature increases ([20]; doses of 2 mg, in one patient): ~3 °C
- hyperthermia ([20]; seen at 0.3-3 mg/kg, oral administration): up to 1.5 °C
